Results reported in patent publication US10385107B2 (INDIANA UNIVERSITY RESEARCH AND TECHNOLOGY CORPORATION, priority 2014, dated 2019).
Entries after “also recorded” stand apart in the source; their conditions may differ. One block for each substance: values may come before it.

What was measured:
[1] = system: blood glucose; test: Insulin tolerance test in C57/Blk mice (MIU-30); format: in vivo; settings: C57 black mice, through 8 hr
Excerpt: (generating “MIU-30c”). […] In FIG. 1B total blood glucose of MIU 30a and MIU 30c as compared to vehicle is reported as differential area under curve (AUC). […] These in vivo results are consistent with the in vitro analysis.

[2] = biological target: T1, insulin receptor (Homo sapiens, UniProt P06213); test: Insulin receptor phosphorylation assay, receptor transfected HEK293 cells; format: cell-based; set-up: expressed in transfected cells; host or cells: HEK293; settings: incubated in 20% plasma
T1 sequence (P06213 28-758 limits assumed): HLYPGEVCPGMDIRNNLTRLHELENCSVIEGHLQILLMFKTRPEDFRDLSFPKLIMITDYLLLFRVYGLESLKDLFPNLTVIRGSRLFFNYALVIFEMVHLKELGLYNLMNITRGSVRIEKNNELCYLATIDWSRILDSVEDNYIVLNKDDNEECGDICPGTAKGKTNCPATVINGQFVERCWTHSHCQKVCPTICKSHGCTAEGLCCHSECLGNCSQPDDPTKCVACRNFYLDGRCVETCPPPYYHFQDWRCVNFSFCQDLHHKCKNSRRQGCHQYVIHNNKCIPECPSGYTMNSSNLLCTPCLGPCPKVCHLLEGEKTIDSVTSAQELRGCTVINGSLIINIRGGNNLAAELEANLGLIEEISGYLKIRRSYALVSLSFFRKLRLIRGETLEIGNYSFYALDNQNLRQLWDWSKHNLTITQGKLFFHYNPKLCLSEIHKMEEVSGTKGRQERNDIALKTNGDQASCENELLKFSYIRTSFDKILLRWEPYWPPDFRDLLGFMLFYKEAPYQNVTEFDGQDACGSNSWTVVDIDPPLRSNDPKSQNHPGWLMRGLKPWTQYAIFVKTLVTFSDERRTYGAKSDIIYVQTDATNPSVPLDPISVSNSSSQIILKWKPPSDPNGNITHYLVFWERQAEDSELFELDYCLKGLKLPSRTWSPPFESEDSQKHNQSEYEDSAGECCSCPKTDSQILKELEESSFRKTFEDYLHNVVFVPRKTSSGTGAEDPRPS
T1 sequence (P06213 763-1382 partner limits assumed): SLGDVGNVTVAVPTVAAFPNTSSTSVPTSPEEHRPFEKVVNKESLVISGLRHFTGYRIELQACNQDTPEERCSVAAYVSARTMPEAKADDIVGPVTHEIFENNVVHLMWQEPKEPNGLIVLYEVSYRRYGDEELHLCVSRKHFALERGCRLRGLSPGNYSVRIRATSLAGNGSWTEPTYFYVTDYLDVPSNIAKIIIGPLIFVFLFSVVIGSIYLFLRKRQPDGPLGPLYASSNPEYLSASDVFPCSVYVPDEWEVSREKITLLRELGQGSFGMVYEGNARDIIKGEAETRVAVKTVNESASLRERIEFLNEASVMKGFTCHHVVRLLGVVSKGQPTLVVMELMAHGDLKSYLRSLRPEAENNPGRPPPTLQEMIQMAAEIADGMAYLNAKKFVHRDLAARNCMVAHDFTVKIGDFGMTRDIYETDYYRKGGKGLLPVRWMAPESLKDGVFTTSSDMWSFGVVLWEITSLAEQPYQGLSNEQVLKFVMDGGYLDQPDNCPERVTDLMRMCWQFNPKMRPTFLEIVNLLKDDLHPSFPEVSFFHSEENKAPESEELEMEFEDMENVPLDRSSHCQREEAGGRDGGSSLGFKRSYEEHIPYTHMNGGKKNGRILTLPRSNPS

[3] = biological target: T1, insulin receptor; test: Insulin receptor competition binding assay (scintillation proximity); set-up: expressed in transfected cells; plasma membrane fragments; settings: incubated in 20% plasma/PBS at 37° C.
[4] = Stability of Phe^B1-Insulin Prodrug
[5] = system: blood glucose; test: Comparative insulin tolerance for insulin prodrug analogs in mice; format: in vivo; settings: for comparative insulin potency in vivo: mice, administered without pre-incubation
Excerpt: The prodrug derivative MIU-29: [B^1(Y16,L17,Y25)29a: A^1(aF19-dLys(Ac),NLeu)] comprises a 4-amino-phenylalnine substitution at position A19 wherein a dipeptide dLys(Ac),NLeu have been covalently linked at the 4-amino position of the A19 residue. […]
(§1) Acylation of the insulin prodrug analogs was investigated to determine if retention times in vivo could be enhanced. […] (providing time for prodrug conversion) relative to the non-acylated prodrug (see FIG. 2).

[6] = In vitro activity of prodrugs relative to time incubated ex vivo; settings: 30% ACN/PBS, pH 7.4, 37° C.
Method: FIG. 2 is a graph depicting the in vitro activity of the acylated prodrug MIU 42: B^1(Y16,L17,Y25)29a: A^1(dLys(rE-C14),Sar-aF19) (wherein an amino acid of the dipeptide prodrug element is acylated, linked at the gamma position “rE” of a glutamic acid linker) relative to time incubated ex vivo in 30% ACN/PBS at pH 7.4 and 37° C.
as §1

% Activity of Insulin (phosphorylation) ([2]; 1 hr): 23.0%
% Activity of Insulin (phosphorylation) ([2]; 3 hr): 26.8%
% Activity of Insulin (phosphorylation) ([2]; 6 hr): 32.5%
% Activity of Insulin (phosphorylation) ([2]; 9 hr): 41.1%
% Activity of Insulin (phosphorylation) ([2]; […]): 43.2%
% Activity of Insulin (binding) ([3]; 0 hr): 34.44%
% Activity of Insulin (binding) ([3]; 9 hr): 100.09%
% Activity of Insulin (binding) ([3]; 95 hr): 115.42%
Substance: B^1(Y16,L17,Y25)29a: A^1(dLys(Ac),Sar-aF19) [MIU30]
blood glucose AUC vs vehicle (glucose lowering) ([1]; 90 nmol/kg): little change in glucose
blood glucose AUC vs vehicle (glucose lowering) ([1]; 270 nmol/kg): glucose lowering

Cleavage time [4]: > 240 h
Substance: Methyl dLys(C18) [Peptide 8]

Substance: [B^1(H5,10 Y16,L17,Y25, K29-C14)28a: A^1(N18,21, aF19NH2)] [MIU-46]
comparative insulin potency in vivo [5]: did not exhibit a desired in vivo potency or a basal profile

Substance: [B^1(Y16,L17,Y25)29a: A^1(aF19-dLys(Ac),NLeu)] [MIU-29]
ability to lower blood glucose compared to parent compound ([5]; normal mice, prodrug incubated 24 hours ex vivo before administration): performed almost identically

Substance: [B^1(Y16,L17,Y25)29a: A^1(dLys(rE-C14),Sar-aF19)] [MIU 42]
comparative insulin potency in vivo [5]: not very potent relative to the non-prodrug parent compound
in vitro activity relative to time incubated ex vivo [6]: increases with time incubated ex vivo; also recorded: activity is restored

Cleavage time [4]: ~150 h
Substance: isobutyl dLys(C18) [Peptide 10]
